# In patent US7824853B2, “Complex comprising at least two biospecific elements separated by a nucleic acid linker e.g. for identification of drug delivery candidates combinatorial library of such complexes” (Avaris AB, priority 2002, dated 2010):
# System: peripheral blood mononuclear cells, population with the characteristics of monocytes
# Assay: Monocyte binding assay (FACS, binding and uptake of fluorescent complexes)
# Type: cell-based
# Conditions: monocytic population; incubated one hour at +37° C., then trypsinisation; 6-FAM labelled 48-mer oligo
# Source text: Oligonucleotides (48-mers) with recognition sites for 2 different peptide-nucleic-acid sequences and with a fluorescent label were designed and manufactured. Each binding site corresponds to 15 nucleotides. The 48-mer oligos contain in the 5′ end the fluorescent label, 6-FAM, followed by three thymidine residues as spacer. There is a single central target site (GGAAGGGCCGAGCGC, Seq. Id. No. 2) surrounded by two identical adjacent target sites (CAATCGGAACGGATC, Seq. Id. No. 1).
# Peptide-nucleic-acid-linker3-peptide (=ligand) fusions were generated as described before (Brandén L J, Mohamed A J, Smith C I E. A peptide nucleic acid-nuclear localisation signal fusion that mediates nuclear transport of DNA. Nature Biotechnol 17: 784-787, 1999). […]
# Peptide-nucleic-acid-linker3-peptide (=ligand) fusions were hybridised to oligonucleotides in order to generate the novel biomolecular complexes. […] Following the incubation cells were analysed in a fluorescent activated cell sorter (FACS SCAN, Becton Dickinson, Mountain View, Calif.).
sequence,measurement,value
TAT (FE2): PNA-linker3-HIV TAT peptide (grkkrrqrrrppqc) fusion hybridised to central target site Seq. Id. No. 2 of the 48-mer oligo,Percentage of fluorescent cells,0.93%
